From patent US20100016307A1, “NOVEL COMPOUNDS” (priority 2006, published 2010)

The compounds below were run against T1, c-Met/cFms chimeric receptor in c-Met/cFms/NIH3T3 cells (Homo sapiens, UniProt P08581) (assay: Cell-based assay for c-Met autophosphorylation (ELISA)). Settings: compounds 1 h at 37° C., M-CSF (600 ng/ml) stimulation 10 min.
T1 construct: The transmembrane/cytoplasmic domain fragment of c-Met (nucleotides 933 to 1390); expressed in transfected cells; the other entry of the earlier key: CSF1R (P07333, Macrophage colony-stimulating factor 1 receptor)
T1 sequence (P08581 with tags, fused parts or gaps): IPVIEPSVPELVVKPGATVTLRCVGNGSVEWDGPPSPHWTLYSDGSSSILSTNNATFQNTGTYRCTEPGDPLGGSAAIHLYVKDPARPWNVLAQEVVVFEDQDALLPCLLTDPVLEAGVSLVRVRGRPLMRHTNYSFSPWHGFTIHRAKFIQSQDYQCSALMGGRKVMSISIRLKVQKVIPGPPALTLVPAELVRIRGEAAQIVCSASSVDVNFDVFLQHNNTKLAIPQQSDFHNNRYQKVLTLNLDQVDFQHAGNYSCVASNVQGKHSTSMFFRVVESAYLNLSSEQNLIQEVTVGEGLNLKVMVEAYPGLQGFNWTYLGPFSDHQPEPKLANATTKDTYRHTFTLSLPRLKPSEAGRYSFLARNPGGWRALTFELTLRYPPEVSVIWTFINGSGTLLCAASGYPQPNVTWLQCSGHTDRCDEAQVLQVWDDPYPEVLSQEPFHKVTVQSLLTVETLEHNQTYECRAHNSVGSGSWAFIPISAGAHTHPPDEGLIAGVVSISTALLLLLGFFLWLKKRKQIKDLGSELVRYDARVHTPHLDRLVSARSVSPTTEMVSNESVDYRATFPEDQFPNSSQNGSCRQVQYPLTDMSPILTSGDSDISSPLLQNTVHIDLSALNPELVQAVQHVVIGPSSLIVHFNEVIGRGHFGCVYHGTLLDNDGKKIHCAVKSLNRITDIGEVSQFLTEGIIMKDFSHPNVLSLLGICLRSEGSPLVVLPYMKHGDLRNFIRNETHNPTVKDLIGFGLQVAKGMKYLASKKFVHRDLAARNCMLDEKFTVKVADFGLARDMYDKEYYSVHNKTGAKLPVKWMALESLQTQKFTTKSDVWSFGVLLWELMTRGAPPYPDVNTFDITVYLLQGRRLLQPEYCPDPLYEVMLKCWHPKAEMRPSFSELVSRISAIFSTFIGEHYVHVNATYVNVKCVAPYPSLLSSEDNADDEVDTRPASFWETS
Description: To generate a chimeric cDNA clone of c-Met with cFms, the extracellular domain of colony stimulating factor 1 receptor (CSF1R encoded by cFms gene) was fused with the transmembrane and cytoplasmic domain of c-Met. Reverse-transcribed RNA from human placenta was used as template to clone c-Met. The transmembrane/cytoplasmic domain fragment of c-Met (nucleotides 933 to 1390) containing a NotI site at both 5′- and 3′-end was generated by polymerase chain reaction (PCR) using following two oligonucleotides;
The resulting c-Met cDNA was cloned into pCR2.1-TOPO vector (c-Met/pCR2.1-TOPO). The extracellular domain fragment of cFms (nucleotides 1 to 512) containing BamHI site at 5′-end and NotI site at 3′-end was generated from human placenta cDNA by PCR using two oligonucleotides;
The resulting cFms cDNA was cloned into pcDNA3.1 vector (Invitrogen) using the BamHI and NotI sites (cFms/pcDNA3.1). To generate complete chimeric construct, the c-Met fragment (transmembrane and cytoplasmic domain) was digested with NotI sites (in c-Met/pCR2.1-TOPO vector) and then subcloned into cFms/pcDNA3.1 vector by NotI site (c-Met/cFms/pcDNA3.1).
NIH3T3 cells were grown in DMEM supplemented with 10% fetal bovine serum. NIH3T3 cells were transfected with c-Met/cFms/pcDNA3.1 vector alone using the calcium phosphate method according to the manufacturer's instructions. Three days after transfection, cells were selected with G418 (0.4 mgml^−1) for 14 days and the expression of c-Met chimeric receptor in the G418-resistant colonies of NIH3T3 (c-Met/cFms/NIH3T3) cells was analyzed by immunoblot. Autophosphorylation of c-Met induced by the stimulation with M-SCF, the ligand for CSF1R, was analyzed by immunoprecipitation and immunoblot, and prominent stable transfectant was selected for c-Met autophosphorylation assay. […]
c-Met/cFms/NIH3T3 cells were plated at 1×10^5 cells/well in collagen-coated 96-well microtitre plates and grown 24 h under standard culture conditions, followed by serum starvation for 1 h. The cells were incubated with compounds for 1 h at 37° C. and followed by M-CSF (600 ngml^−1) stimulation for 10 min at 37° C. The media was removed and the cells were lysed with 120 ul/well of lysis buffer (20 mM Tris-HCl pH8.0, 137 mM NaCl, 2 mM EDTA, 10% glycerol, 1% Triton X-100, 1 mM Na3VO4 and Protease Inhibitor Cocktail (Complete mini EDTA-free, Roche)). Then 100 ul/well of lysate was transferred to the antibody-coated (50 ng/well goat anti-cFms antibody in PBS) ELISA plate and incubated overnight at 4° C. Plates were washed five times with PBST (PBS containing 0.05% Tween-20). Primary antibody (biotin-conjugated anti-phosphotyrosine monoclonal antibody, PIERCE) was diluted 1:10,000 in PBST containing 1% BSA, added (100 ul/well) and incubated for 2 h at room temperature. After washing the plates five times with washing buffer, 100 ul/well of HRP-conjugated streptavidin (PIERCE) in PBST containing 1% BSA was added and incubated for 30 min at room temperature. After washing five times with PBST, 100 ul/well of SuperSignal ELISA Femto Substrate (PIERCE) was added and incubated for almost 1 min at room temperature. Chemiluminescence was measured using Wallac 1420 multilabel counter.
The IC50 was determined by using XLfit software (IDBS) with four-parameters, sigmoidal dose-response equation.

| Compound | IC50 [µM] |
| --- | --- |
| COc1ccccc1CNC(=O)c1cc2c(Oc3ccc(NC(=O)C4(C(=O)Nc5ccc(F)cc5)CC4)cc3)ccnc2[nH]1 [Example 12, N^1-(4-Fluorophenyl)-N^1-[4-({2-[({[2-(methyloxy)phenyl]methyl}amino)carbonyl]-1H-pyrrolo[2,3-b]pyridin-4-yl}oxy)phenyl]-1,1-cyclopropane dicarboxamide] | 1 to 3.16 |
| O=C(Nc1ccc(F)cc1)C1(C(=O)Nc2ccc(Nc3ccnc4[nH]c(-c5ccccc5)cc34)cc2)CC1 [Example 22, N^1-(4-Fluorophenyl)-N^1-{4-[(2-phenyl-1H-pyrrolo[2,3-b]pyridin-4-yl)amino]phenyl}-1,1-cyclopropanedicarboxamide] | 3.16 to 31.6 |
| COc1ccccc1NC(=O)c1cc2c(Oc3ccc(NC(=O)C4(C(=O)Nc5ccc(F)cc5)CC4)cc3)ccnc2[nH]1 [Example 13, N^1-(4-Fluorophenyl)-N^1-(4-{[2-({[2-(methyloxy)phenyl]amino}carbonyl)-1H-pyrrolo[2,3-b]pyridin-4-yl]oxy}phenyl)-1,1-cyclopropane dicarboxamide] | 3.16 to 31.6 |
| CCOC(=O)c1cc2c(Nc3ccc(NC(=O)C4(C(=O)Nc5ccc(F)cc5)CC4)cc3)ccnc2[nH]1 [Example 17, Ethyl 4-[(4-{[(1-{[(4-fluorophenyl)amino]carbonyl}cyclopropyl)carbonyl]amino}phenyl)amino]-1H-pyrrolo[2,3-b]pyridine-2-carboxylate] | 1 to 3.16 |
| O=C(NCCN1CCOCC1)c1cc2c(Nc3ccc(NC(=O)C4(C(=O)Nc5ccc(F)cc5)CC4)cc3)ccnc2[nH]1 [Example 19, N^1-(4-Fluorophenyl)-N^1-(4-{[2-({[2-(4-morpholinyl)ethyl]amino}carbonyl)-1H-pyrrolo[2,3-b]pyridin-4-yl]amino}phenyl)-1,1-cyclopropane dicarboxamide] | 1 to 3.16 |

The remaining lines, values ahead:

| IC50 [µM] | Compound |
| --- | --- |
| 3.16 to 31.6 | O=C(NCCc1c[nH]cn1)c1cc2c(Nc3ccc(NC(=O)C4(C(=O)Nc5ccc(F)cc5)CC4)cc3)ccnc2[nH]1 [Example 20, N^1-(4-Fluorophenyl)-N^1-(4-{[2-({[2-(1H-imidazol-4-yl)ethyl]amino}carbonyl)-1H-pyrrolo[2,3-b]pyridin-4-yl]amino}phenyl)-1,1-cyclopropane dicarboxamide] |
| 1 to 3.16 | CN(C)c1ccc(CNC(=O)c2cc3c(Oc4ccc(NC(=O)C5(C(=O)Nc6ccc(F)cc6)CC5)cc4)ccnc3[nH]2)cc1 [Example 11, N^1-[4-({2-[({[4-(Dimethylamino)phenyl]methyl}amino)carbonyl]-1H-pyrrolo[2,3-b]pyridin-4-yl}oxy)phenyl]-N^1-(4-fluorophenyl)-1,1-cyclopropane dicarboxamide] |
| 1 to 3.16 | O=C(NCCN1CCNCC1)c1cc2c(Oc3ccc(NC(=O)C4(C(=O)Nc5ccc(F)cc5)CC4)cc3)ccnc2[nH]1 [Example 3, N^1-(4-Fluorophenyl)-N^1-(4-{[2-({[2-(1-piperazinyl)ethyl]amino}carbonyl)-1H-pyrrolo[2,3-b]pyridin-4-yl]oxy}phenyl)-1,1-cyclopropane dicarboxamide] |
| 3.16 to 31.6 | CS(=O)(=O)CCNC(=O)c1cc2c(Nc3ccc(NC(=O)C4(C(=O)Nc5ccc(F)cc5)CC4)cc3)ccnc2[nH]1 [Example 21, N^1-(4-Fluorophenyl)-N^1-(4-{[2-({[2-(methylsulfonyl)ethyl]amino}carbonyl)-1H-pyrrolo[2,3-b]pyridin-4-yl]amino}phenyl)-1,1-cyclopropane dicarboxamide] |

These compounds were tested against T2, human Met Kinase (His6-GST fusion, aa 956-1390) (Homo sapiens, UniProt P08581) (assay: In vitro screen: kinase assay of purified Met kinase). Settings: purified Met 1 nM, 10 μM ATP, 1 μM peptide substrate, 1 hour at room temperature; read-out: pIC50 values at the c-Met receptor (in vitro screen results) (converted).
T2 construct: His6 (N); GST (Glutathione-S-Transferase) (N); made in house; host or cells: baculovirus expression system in Sf9 cells
T2 sequence (P08581 956-1390): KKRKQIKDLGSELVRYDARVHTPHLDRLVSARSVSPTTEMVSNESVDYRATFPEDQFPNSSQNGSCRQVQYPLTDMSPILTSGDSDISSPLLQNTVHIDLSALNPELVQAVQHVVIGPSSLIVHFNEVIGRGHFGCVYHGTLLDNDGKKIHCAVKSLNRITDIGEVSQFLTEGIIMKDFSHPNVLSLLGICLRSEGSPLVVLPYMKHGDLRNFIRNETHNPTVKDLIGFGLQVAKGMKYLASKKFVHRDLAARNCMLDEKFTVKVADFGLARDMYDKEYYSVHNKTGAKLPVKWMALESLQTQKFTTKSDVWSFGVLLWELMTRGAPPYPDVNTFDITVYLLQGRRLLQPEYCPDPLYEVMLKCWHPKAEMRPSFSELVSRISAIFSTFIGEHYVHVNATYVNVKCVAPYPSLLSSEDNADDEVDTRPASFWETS
Format: biochemical
Description: The peptide substrate, Biotin-aminohexyl-EEEEYFELVAKKKK-amide was purchased from SynPep Solid sample is dissolved at approximately 2.5 mM in water (concentration determined by amino acid analysis) and aliquots stored at −20° C.
Met Kinase: A fusion protein consisting of His6-tagged Glutathione-S-Transferase (GST) and amino acid residues 956-1390 of human Met Kinase (aa 956-1390 of Entrez Protein Accession # EAL24359.1 (met proto-oncogene (hepatocyte growth factor receptor) [Homo sapiens])) from “www.ncbi.nlm.nih.gov/entrez/”) is purified from baculovirus expression system in Sf9 cells using Ni chelate column, GSH column, followed by size exclusion chromatography. Purity greater than 90%, estimated by SDS-PAGE, is achieved. Samples in 25 mM HEPES pH 7.5, 100 mM NaCl, 0.1 mM EDTA are stored at −80° C. until use.
Assays are performed in 96 well (Costar, Catalog No. 3789) or 384 well plates (Costar, Catalog No. 3705). Assay conditions for the peptide phosphorylation reaction (in 10, 20, 25, or 40 μl volume) mix are 100 mM Hepes buffer, pH 7.4; 0.1 mgml^−1 BSA; 5 mM MgCl2; 1 mM DTT; 10 μM ATP; purified Met (1 nM final); and 1 μM peptide substrate. Compounds, titrated in DMSO, are evaluated at concentrations ranging from 50 μM to 0.2 nM. […] Reactions are incubated for 1 hour at room temperature and are stopped by addition of detection reagents containing, at final detection volume, 12.5 mM EDTA; 100 mM Hepes; 0.1 mg/ml BSA; 8 nM Streptavidin APC (Perkin Elmer catalog #CR130-150); 1 nM Europium-labelled anti-phosphotyrosine antibody (Perkin Elmer catalog #AD0067). Under the assay conditions defined above, the Km (apparent) for ATP is determined to be 40 μM.
The data for compound dose responses were plotted as % Inhibition, calculated with the data reduction formula 100*(1−[(U1−C2)/(C1−C2)]), versus concentration of compound, where U is the unknown value, C1 is the average control value obtained for DMSO, and C2 is the average control value obtained for 0.05M EDTA. Data were fitted to the curve described by: y=((Vmax*x)/(K+x)) where Vmax is the upper asymptote and K is the IC50. The results for each compound were recorded as pIC50 calculated as follows: pIC50=−Log 10(K).

| Compound | IC50 [µM] |
| --- | --- |
| O=C(NCCN1CCOCC1)c1cc2c(Oc3ccc(NC(=O)C4(C(=O)Nc5ccc(F)cc5)CC4)cc3)ccnc2[nH]1 [Example 4, N^1-(4-Fluorophenyl)-N^1-(4-{[2-({[2-(4-morpholinyl)ethyl]amino}carbonyl)-1H-pyrrolo[2,3-b]pyridin-4-yl]oxy}phenyl)-1,1-cyclopropane dicarboxamide] | < 0.01 |
| O=C(NCCO)c1cc2c(Oc3ccc(NC(=O)C4(C(=O)Nc5ccc(F)cc5)CC4)cc3)ccnc2[nH]1 [Example 7, N^1-(4-Fluorophenyl)-N^1-{4-[(2-{[(2-hydroxyethyl)amino]carbonyl}-1H-pyrrolo[2,3-b]pyridin-4-yl)oxy]phenyl}-1,1-cyclopropanedicarboxamide] | < 0.01 |

Now from value to compound:

| IC50 [µM] | Compound |
| --- | --- |
| < 0.01 | CS(=O)(=O)CCNC(=O)c1cc2c(Oc3ccc(NC(=O)C4(C(=O)Nc5ccc(F)cc5)CC4)cc3)ccnc2[nH]1 [Example 1, N^1-(4-Fluorophenyl)-N^1-(4-{[2-({[2-(methylsulfonyl)ethyl]amino}carbonyl)-1H-pyrrolo[2,3-b]pyridin-4-yl]oxy}phenyl)-1,1-cyclopropane dicarboxamide] |
| < 0.01 | O=C(NCCc1c[nH]cn1)c1cc2c(Oc3ccc(NC(=O)C4(C(=O)Nc5ccc(F)cc5)CC4)cc3)ccnc2[nH]1 [Example 9] |
| 0.1 to 1 | O=C(Nc1ccc(F)cc1)C1(C(=O)Nc2ccc(Nc3ccnc4[nH]ccc34)cc2)CC1 [Example 15, N^1-(4-Fluorophenyl)-N^1-[4-(1H-pyrrolo[2,3-b]pyridin-4-ylamino)phenyl]-1,1-cyclopropanedicarboxamide] |
| < 0.01 | NC(=O)CNC(=O)c1cc2c(Oc3ccc(NC(=O)C4(C(=O)Nc5ccc(F)cc5)CC4)cc3)ccnc2[nH]1 [Example 8, N^1-{4-[(2-{[(2-Amino-2-oxoethyl)amino]carbonyl}-1H-pyrrolo[2,3-b]pyridin-4-yl)oxy]phenyl}-N^1-(4-fluorophenyl)-1,1-cyclopropanedicarboxamide] |
| < 0.01 | CN(C)CCCNC(=O)c1cc2c(Oc3ccc(NC(=O)C4(C(=O)Nc5ccc(F)cc5)CC4)cc3)ccnc2[nH]1 [Example 5, N^1-(4-{[2-({[3-(Dimethylamino)propyl]amino}carbonyl)-1H-pyrrolo[2,3-b]pyridin-4-yl]oxy}phenyl)-N^1-(4-fluorophenyl)-1,1-cyclopropane dicarboxamide] |
